Test results: US11999727B2 (Tango Therapeutics, Inc., priority 2020, dated 2024)

Tests used:
[1] = test system: HAP1 MTAP-deleted cell line; experiment: SDMA in-cell western assay, HAP1 MTAP-deleted; format: cell-based; details: for IC50: Homo sapiens, HAP1, SDMA in-cell western, HAP1 MTAP-deleted, read-out: HAP1 MTAP deleted IC50; for MTAP intact/deleted ratio: IC50 ratio HAP1 MTAP-intact / HAP1 MTAP-deleted, SDMA in-cell western
Procedure, shortened: (§1)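 Readout: in-cell western detection of SDMA. Cells: HAP1 expressing endogenous MTAP and an MTAP-null HAP1 counterpart. Output: IC50.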

[2] = molecular target: T1, PRMT5 (Homo sapiens, UniProt O14744); experiment: PRMT5 biochemical IC50 assay with no cofactor; details: PRMT5, no cofactor; read-out: No Cofactor/rel IC50
T1 construct: purchased Viva (custom protein)
T1 sequence (O14744 whole entry): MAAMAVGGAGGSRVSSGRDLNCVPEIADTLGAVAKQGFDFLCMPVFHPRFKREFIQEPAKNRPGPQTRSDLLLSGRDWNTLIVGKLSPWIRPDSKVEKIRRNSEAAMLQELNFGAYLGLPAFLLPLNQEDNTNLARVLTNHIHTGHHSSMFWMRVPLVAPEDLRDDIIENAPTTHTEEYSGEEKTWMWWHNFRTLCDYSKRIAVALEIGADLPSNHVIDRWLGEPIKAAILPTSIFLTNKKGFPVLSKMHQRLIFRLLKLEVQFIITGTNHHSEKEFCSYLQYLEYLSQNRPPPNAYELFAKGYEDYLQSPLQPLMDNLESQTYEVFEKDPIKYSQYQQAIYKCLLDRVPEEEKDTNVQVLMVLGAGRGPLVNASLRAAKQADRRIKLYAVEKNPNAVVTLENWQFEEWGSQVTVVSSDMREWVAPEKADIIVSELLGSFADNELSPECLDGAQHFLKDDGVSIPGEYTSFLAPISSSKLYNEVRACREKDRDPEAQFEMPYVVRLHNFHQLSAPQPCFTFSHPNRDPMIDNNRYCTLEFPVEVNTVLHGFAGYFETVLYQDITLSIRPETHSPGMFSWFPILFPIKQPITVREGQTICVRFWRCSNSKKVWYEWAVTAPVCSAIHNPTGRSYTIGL
T1 sequence (Q9BQA1 whole entry partner): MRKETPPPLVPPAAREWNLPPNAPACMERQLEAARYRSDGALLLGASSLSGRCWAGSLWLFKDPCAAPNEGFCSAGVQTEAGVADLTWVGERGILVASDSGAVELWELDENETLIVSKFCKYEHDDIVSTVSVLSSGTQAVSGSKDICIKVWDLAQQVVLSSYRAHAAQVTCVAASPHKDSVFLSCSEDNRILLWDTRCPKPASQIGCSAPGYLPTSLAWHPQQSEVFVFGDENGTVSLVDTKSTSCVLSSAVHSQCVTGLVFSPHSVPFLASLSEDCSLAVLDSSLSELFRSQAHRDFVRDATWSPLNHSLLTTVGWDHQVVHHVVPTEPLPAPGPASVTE
Description: Table 1 indicates IC50 values (μM) against PRMT5 for exemplary compounds in the presence of SAM as cofactor, with no cofactor, and with MTA as cofactor, respectively (columns 4-6). […] Ki values can be calculated from the IC50 values as described in the Examples section. As detailed in the Examples section, for the assay performed in the presence of SAM, IC50=Ki×1.5 (Ki=IC50/1.5).

[3] = test system: HAP1 MTAP-intact cell line; experiment: SDMA in-cell western assay, HAP1 MTAP-intact; format: cell-based; design: MTAP HAP1 intact IC50: scale not given here; details: HAP1 MTAP-intact; for IC50: Homo sapiens, HAP1, SDMA in-cell western, read-out: MTAP HAP1 intact IC50
Procedure, shortened: as §1

[4] = molecular target: T1, PRMT5; experiment: PRMT5 biochemical IC50 assay with SAM as cofactor; details: PRMT5, SAM as cofactor; read-out: SAM IC50
[5] = molecular target: T1, PRMT5; experiment: PRMT5 biochemical IC50 assay with MTA as cofactor; details: PRMT5, MTA as cofactor; read-out: MTA IC50
[6] = test system: HAP1 MTAP-deleted cell line; experiment: Viability assay, MTAP-deleted cell line; format: cell-based; details: Homo sapiens, HAP1, viability assay, HAP1 MTAP-deleted; read-out: HAP1 MTAP deleted viability
Description: Table 1 additionally indicates IC50 values in a viability assay for the MTAP-deleted cell line (column 10), indicating the effect of treatment with compound on cell survival.

Row | SMILES | IC50 [1] | MTAP intact/deleted ratio [1] | IC50 [2] | IC50 [3] | IC50 [4] | IC50 [5] | IC50 [6] | MTAP HAP1 intact IC50 ([3]; SDMA in-cell western)
1 | Cc1cc(NC(=O)C(=O)N2C[C@@H](C)CC[C@H]2C23CC(O)(C2)C3)cnc1N (racemic) [Compound 774] | > 1000 nM | B (an IC50 ratio greater than or equal to 3 fold but lower than 10 fold) | > 500 nM | > 1000 nM | > 500 nM | 50 to 500 nM | > 10 µM | –
2 | CNC(=O)N1CCC([C@@H]2CC[C@@H](C)CN2C(=O)C(=O)Nc2cnc(N)c(C)c2)CC1 (racemic) [Compound 781, 4-[(2R,5S)-1-[2-[(6-amino-5-methyl-3-pyridyl)amino]-2-oxo-acetyl]-5-methyl-2-piperidyl]-N-methyl-piperidine-1-carboxamide] | < 100 nM | A (an IC50 ratio greater than or equal to 10 fold) | 50 to 500 nM | > 1000 nM | 50 to 500 nM | 50 to 500 nM | 1 to 10 µM | –
3 | C[C@@H]1CC[C@@H](c2cncc(Cl)c2)N(C(=O)C(=O)Nc2cncc(C(N)=O)c2)C1 (racemic) [Compound 791, 5-(2-(2-(5-chloropyridin-3-yl)-5-methylpiperidin-1-yl)-2-oxoacetamido)nicotinamide] | 100 to 1000 nM | A (an IC50 ratio greater than or equal to 10 fold) | 50 to 500 nM | > 1000 nM | 50 to 500 nM | < 50 nM | 1 to 10 µM | –
4 | Cc1cc(NC(=O)C(=O)N2C[C@H](C)CC[C@H]2c2cnn(-c3ccn[nH]3)c2)cnc1N (racemic) [Compound 793, N-(6-amino-5-methyl-3-pyridyl)-2-[(2R,5S)-5-methyl-2-[1-(1H-pyrazol-3-yl)pyrazol-4-yl]-1-piperidyl]-2-oxo-acetamide] | 100 to 1000 nM | A (an IC50 ratio greater than or equal to 10 fold) | 50 to 500 nM | > 1000 nM | 50 to 500 nM | 50 to 500 nM | 1 to 10 µM | –
5 | Cc1ncc(NC(=O)C(=O)N2C[C@H](C)CC[C@H]2c2ccc3c(c2)CCC(=O)N3)cc1C(F)F (racemic) [Compound 803, rac-N-[5-(Difluoromethyl)-6-methyl-3-pyridyl]-2-[(2S,5R)-5-methyl-2-(2-oxo-3,4-dihydro-1H-quinolin-6-yl)-1-piperidyl]-2-oxo-acetamide] | < 100 nM | A (an IC50 ratio greater than or equal to 10 fold) | 50 to 500 nM | > 1000 nM | 50 to 500 nM | < 50 nM | < 1 µM | –
6 | Cc1cc(NC(=O)C(=O)N2C[C@H](C)CC[C@H]2[C@H]2CC3(C[C@H](C(N)=O)C3)C2)cnc1N (mixture of isomers) [Compound 812, 6-(1-(2-((6-amino-5-methylpyridin-3-yl)amino)-2-oxoacetyl)-5-methylpiperidin-2-yl)spiro[3.3]heptane-2-carboxamide] | > 1000 nM | C (an IC50 ratio of less than 3 fold) | > 500 nM | > 1000 nM | > 500 nM | 50 to 500 nM | > 10 µM | –
7 | CNC(=O)N1CCCC([C@@H]2CC[C@@H](C)CN2C(=O)C(=O)Nc2cnc(N)c(C)c2)C1 (mixture of isomers) [Compound 814, 1-(2-((6-amino-5-methylpyridin-3-yl)amino)-2-oxoacetyl)-N,5-dimethyl-[2,3′-bipiperidine]-1′-carboxamide] | 100 to 1000 nM | A (an IC50 ratio greater than or equal to 10 fold) | 50 to 500 nM | > 1000 nM | 50 to 500 nM | 50 to 500 nM | > 10 µM | –
8 | Cc1cc(NC(=O)C(=O)N2C[C@H](C)CC[C@H]2c2cc3cn[nH]c3s2)cnc1N (racemic) [Compound 815, N-(6-amino-5-methylpyridin-3-yl)-2-(5-methyl-2-(1H-thieno[2,3-c]pyrazol-5-yl)piperidin-1-yl)-2-oxoacetamide] | < 100 nM | A* (an IC50 ratio greater than or equal to 10 fold) | 50 to 500 nM | 100 to 1000 nM | 50 to 500 nM | < 50 nM | < 1 µM | –
9 | C[C@@H]1CC[C@@H](c2ccc(F)cc2)N(C(=O)C(=O)Nc2cnc(OC(F)(F)F)c(C(N)=O)c2)C1 (racemic) [Compound 818, rac 5-[[2-[(2R,5S)-2-(4-fluorophenyl)-5-methyl-1-piperidyl]-2-oxo-acetyl]amino]-2-(trifluoromethoxy)pyridine-3-carboxamide] | 100 to 1000 nM | A (an IC50 ratio greater than or equal to 10 fold) | 50 to 500 nM | > 1000 nM | 50 to 500 nM | 50 to 500 nM | > 10 µM | –
10 | CNc1nc2cc([C@@H]3CC[C@@H](C)CN3C(=O)C(=O)Nc3cnc(C)c(C)c3)ccc2s1 (racemic) [Compound 828, N-(5,6-dimethyl-3-pyridyl)-2-[(2R,5S)-5-methyl-2-[2-(methylamino)-1,3-benzothiazol-5-yl]-1-piperidyl]-2-oxo-acetamide] | < 100 nM | A (an IC50 ratio greater than or equal to 10 fold) | 50 to 500 nM | > 1000 nM | 50 to 500 nM | 50 to 500 nM | 1 to 10 µM | –
11 | CC(=O)N[C@H]1CCN(C(=O)C(=O)Nc2cnc(N)c(C)c2)[C@@H](c2ccccc2)C1 (racemic) [Compound 831, 2-[(2R,4S)-4-acetamido-2-phenyl-1-piperidyl]-N-(6-amino-5-methyl-3-pyridyl)-2-oxo-acetamide] | > 1000 nM | B (an IC50 ratio greater than or equal to 3 fold but lower than 10 fold) | > 500 nM | > 1000 nM | > 500 nM | 50 to 500 nM | > 10 µM | –
12 | C[C@@H]1CN(C(=O)C(=O)Nc2cncc(C(N)=O)c2)[C@@H](c2ccc(F)cc2)C(F)(F)C1 (racemic) [Compound 836, 5-[[2-[(2S,5S)-3,3-difluoro-2-(4-fluorophenyl)-5-methyl-1-piperidyl]-2-oxo-acetyl]amino]pyridine-3-carboxamide] | 100 to 1000 nM | A (an IC50 ratio greater than or equal to 10 fold) | 50 to 500 nM | – | 50 to 500 nM | < 50 nM | 1 to 10 µM | C*
13 | Cc1cc(NC(=O)C(=O)N2CC[C@@H](C(=O)C(C)C)C[C@H]2c2ccc3c(c2)CCC(=O)N3)cnc1N (racemic) [Compound 853, N-(6-amino-5-methyl-3-pyridyl)-2-[(2S,4R)-4-(2-methylpropanoyl)-2-(2-oxo-3,4-dihydro-1H-quinolin-6-yl)-1-piperidyl]-2-oxo-acetamide] | 100 to 1000 nM | A (an IC50 ratio greater than or equal to 10 fold) | 50 to 500 nM | > 1000 nM | 50 to 500 nM | 50 to 500 nM | 1 to 10 µM | –
14 | Cc1cc(NC(=O)C(=O)N2CCC(C(=O)C(C)C)C[C@H]2c2ccc3c(c2)CCC(=O)N3)cnc1N (mixture of isomers) [Compound 854, N-(6-Amino-5-methyl-3-pyridyl)-2-[(2S)-4-(2-methylpropanoyl)-2-(2-oxo-3,4-dihydro-1H-quinolin-6-yl)-1-piperidyl]-2-oxo-acetamide] | 100 to 1000 nM | A (an IC50 ratio greater than or equal to 10 fold) | 50 to 500 nM | > 1000 nM | 50 to 500 nM | 50 to 500 nM | 1 to 10 µM | –
15 | Cc1cc(NC(=O)C(=O)N2C[C@H](C)CC[C@H]2c2ccc3sc(C(F)(F)F)nc3c2)cnc1N (racemic) [Compound 861, rac-N-(6-Amino-5-methyl-3-pyridyl)-2-[(2R,5S)-5-methyl-2-[2-(trifluoromethyl)-1,3-benzothiazol-5-yl]-1-piperidyl]-2-oxo-acetamide] | < 100 nM | A (an IC50 ratio greater than or equal to 10 fold) | 50 to 500 nM | 100 to 1000 nM | 50 to 500 nM | 50 to 500 nM | < 1 µM | –
16 | C[C@@H]1CC[C@@H](c2ccc(F)cc2)N(C(=O)C(=O)Nc2cnc(N)c(C(F)F)c2)C1 (racemic) [Compound 867, N-[6-amino-5-(difluoromethyl)-3-pyridyl]-2-[(2R,5S)-2-(4-fluorophenyl)-5-methyl-1-piperidyl]-2-oxo-acetamide] | 100 to 1000 nM | A (an IC50 ratio greater than or equal to 10 fold) | 50 to 500 nM | > 1000 nM | 50 to 500 nM | 50 to 500 nM | 1 to 10 µM | –
